Reference: PMC7659979, “Discovery and Evaluation of Enantiopure 9H-pyrimido[4,5-b]indoles as Nanomolar GSK-3β Inhibitors with Improved Metabolic Stability” (International Journal of Molecular Sciences, 2020)

Test: Microsomal stability assay (pooled male and female HLM, LC-MS)
Assay type: in vitro ADME, human
Settings: HLM, incubation time of 120 min
Method: To this end, the compounds were incubated with pooled male and female HLM for 120 min, and the compound degradation as well as the formation of metabolites was monitored by liquid chromatography-mass spectrometry (LC-MS) analysis.
The inhibitory activity of the final compounds on GSK-3β was determined by the Promega ADP-Glo™ Kinase assay (Promega Corporation, Madison, WI 53711, USA), which was performed in white, non-treated 384-well plates (Corning). The experiments were carried out as quadruplicates using a concentration of 0.58 ng/µL of recombinant human GSK-3β, 0.2 µg/µL GSK-3 substrate G50-58 […]
(sequence: […](pS)EDEEE) and 25 µM ATP in the presence of serial dilutions of the final compounds. In addition, two control experiments with uninhibited kinase and two blank experiments with ATP/substrate solution were performed.
In detail, the kinase was pre-incubated with the final compounds for 10 min at rt. Then substrate/ATP was added to start the reaction, which was run for 1 h at rt. The next steps consisted of addition of ADP-Glo™ reagent (5 µL, then 1 h incubation) and Kinase detection reagent (10 µL, then 30 min incubation). Finally, the luminescence was measured on a FilterMax F5 microplate reader (Molecular Devices) (integration time 500 ms). GraphPad Prism v. 7.03. was used to normalize the raw data to the values of the control and blank experiments and generate absolute IC 50 values.
2. Interaction Frequencies of (R)-2 and (R)-28 in the 1 µs Molecular Dynamics Simulations
Figure S1. Observed interactions of (R)-2 (a) and (R)-28 (b) in the MD simulations. Both ligands […]
mediates water-bridged interactions to Asp200 or Ser66. Interactions with >10% frequency are shown.
3. Microsomal Stability Assay
Pooled male and female human liver microsomes (HLMs) (Lot: SLBQ7487V) were purchased from Merck (Schnelldorf, Germany). […]
The metabolite formation was analyzed with an Alliance 2695 Separations Module (Waters […]
The absorbance was read at 570 nm using a Spectramax i5 microplate reader. Results were expressed as percentage of control.

- unchanged inhibitor detected after incubation: ~70%
SMILES: CCC(=O)N1CCC[C@@H](N(C)c2ncnc3[nH]c4cc(Br)ccc4c23)C1 [Compound (R)-28, (R)-1-(3-((7-bromo-9H-pyrimido[4,5-b]indol-4-yl)(methyl)amino)piperidin-1-yl)propan-1-one]
